41 compounds from patent US20230293518A1 (Edgewise Therapeutics, Inc., priority 2020, published 2023) can be followed below.

A word on the IC50: it is the concentration that inhibits the measured activity by half. A high value points to a need for much substance.

The experiment has as its target skeletal myofibrils (myosin ATPase). Kind of experiment: Skeletal Myofibril ATPase Assay. Format: biochemical. In outline:
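Skeletal myofibril ATPase activity was measured via PK-LDH coupling, following NADH loss at 340 nm every 1.5-2 min for 45 min in PIPES/CaCl2/EGTA pCa buffer, pH 7.0. Max−Min slopes were normalised to 1% DMSO vehicle (100%) and fit to a four-parameter logistic (bottom ≥0) for IC50.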

For the setting “Table 4C”, `COc1ccc(-c2ccc(=O)n(CC(=O)NC3Cc4ccccc4C3)n2)cc1` [IIIb-8, N-(2,3-dihydro-1H-inden-2-yl)-2-(3-(4-methoxyphenyl)-6-oxopyridazin-1(6H)-yl)acetamide] returned an IC50 below 10 µM.
For `O=C(Cn1nc(-c2ccccc2)ccc1=O)NCc1ccccc1Cl` [IIIc-47, N-(2-chlorobenzyl)-2-(6-oxo-3-phenylpyridazin-1(6H)-yl)acetamide], the IC50 (Table 4C) fell in the range of 10 to 100 µM.
In turn, `O=C(Cn1nc(-c2ccc(OCC(F)(F)F)cc2)ccc1=O)NCc1ccc(CO)cc1` [II-24, N-(4-(hydroxymethyl)benzyl)-2-(6-oxo-3-(4-(2,2,2-trifluoroethoxy)phenyl)pyridazin-1(6H)-yl)acetamide] displayed an IC50 (Table 4B) above 100 µM.
As to `CCNC(=O)Cn1nc(-c2ccc(OCC(F)(F)F)cc2)ccc1=O` [II-6, N-ethyl-2-(6-oxo-3-(4-(2,2,2-trifluoroethoxy)phenyl)pyridazin-1(6H)-yl)acetamide], the IC50 (Table 4B) was below 10 µM.
Take `CCNC(=O)Cn1nc(-c2ccc(N3CC(OC(F)F)C3)nc2)ccc1=O` [Compound I-55, 2-(3-(6-(3-(difluoromethoxy)azetidin-1-yl)pyridin-3-yl)-6-oxopyridazin-1(6H)-yl)-N-ethylacetamide]: for the setting “Table 4A”, the IC50 was in the range of 10 to 100 µM.
As to `COc1ccccc1NC(=O)Cn1nc(-c2ccc(Cl)cc2)ccc1=O` [IIIc-23, 2-(3-(4-chlorophenyl)-6-oxopyridazin-1(6H)-yl)-N-(2-methoxyphenyl)acetamide], where the note is “Table 4C”, the IC50 is below 10 µM.
The compound `O=C(Cn1nc(-c2ccc(OC(F)F)nc2)ccc1=O)NC1CCC1` [Compound I-4, N-cyclobutyl-2-(3-(6-(difluoromethoxy)pyridin-3-yl)-6-oxopyridazin-1(6H)-yl)acetamide] returned an IC50 (Table 4A) below 10 µM.
For the setting “Table 4C”, `CCc1cccc(NC(=O)Cn2nc(-c3ccc(C)cc3)ccc2=O)c1` [IIIc-1, N-(3-ethylphenyl)-2-(6-oxo-3-(p-tolyl)pyridazin-1(6H)-yl)acetamide] came in with an IC50 below 10 µM.
In turn, `O=C(Cn1nc(-c2ccc(F)cc2)ccc1=O)NCCc1c[nH]c2ccccc12` [IIIc-44, N-(2-(1H-indol-3-yl)ethyl)-2-(3-(4-fluorophenyl)-6-oxopyridazin-1(6H)-yl)acetamide] returned an IC50 (Table 4C) of 10 to 100 µM.
The same measure, in the same setting: the value for `COc1ccc(-c2ccc(=O)n(CC(=O)NC3CC3)n2)cc1` [IIIb-22, N-cyclopropyl-2-(3-(4-methoxyphenyl)-6-oxopyridazin-1(6H)-yl)acetamide] was 10 to 100 µM.
With `CCNC(=O)Cn1nc(-c2ccc(NC(C)=O)cc2)ccc1=O` [II-2, 2-(3-(4-acetamidophenyl)-6-oxopyridazin-1(6H)-yl)-N-ethylacetamide], the IC50 (Table 4B) is below 10 µM.
With `CC(=O)Nc1ccc(-c2ccc(=O)n(CC(=O)NC(C)C)n2)cc1` [II-14, 2-(3-(4-acetamidophenyl)-6-oxopyridazin-1(6H)-yl)-N-isopropylacetamide], for the setting “Table 4B”, the IC50 fell in the range of 10 to 100 µM.
On to `CC(C)[C@@](C)(C#N)NC(=O)Cn1nc(-c2ccc(OC(F)F)nc2)ccc1=O` (stereo in doubt) [Compound I-34, N-(2-cyano-3-methylbutan-2-yl)-2-(3-(6-(difluoromethoxy)pyridin-3-yl)-6-oxopyridazin-1(6H)-yl)acetamide], for which the IC50 (Table 4A) is 10 to 100 µM.
`COc1ccccc1NC(=O)Cn1nc(-c2ccccc2)ccc1=O` [IIIc-58, N-(2-methoxyphenyl)-2-(6-oxo-3-phenylpyridazin-1(6H)-yl)acetamide] showed an IC50 (Table 4C) of 10 to 100 µM.
In turn, `COc1ccc(-c2ccc(=O)n(CC(=O)NCc3ccccc3)n2)c(F)c1` [IIIb-54, N-benzyl-2-(3-(2-fluoro-4-methoxyphenyl)-6-oxopyridazin-1(6H)-yl)acetamide] gave an IC50 (Table 4C) above 100 µM.
On the same count and under the same terms, as for `COc1ccc(-c2ccc(=O)n(CC(=O)NC3CCCCC3)n2)cc1` [IIIb-41, N-cyclohexyl-2-(3-(4-methoxyphenyl)-6-oxopyridazin-1(6H)-yl)acetamide], the figure is above 100 µM.
The compound `CCNC(=O)Cn1nc(-c2cnc(NC34CC(F)(C3)C4)nc2)ccc1=O` [Compound I-57, N-ethyl-2-(3-(2-((3-fluorobicyclo[1.1.1]pentan-1-yl)amino)pyrimidin-5-yl)-6-oxopyridazin-1(6H)-yl)acetamide] displayed an IC50 (Table 4A) below 10 µM.
`COc1ccc(-c2ccc(=O)n(CC(=O)Nc3cc(Cl)ccc3Cl)n2)c(F)c1` [IIIb-13, N-(2,5-dichlorophenyl)-2-(3-(2-fluoro-4-methoxyphenyl)-6-oxopyridazin-1(6H)-yl)acetamide] returned an IC50 (Table 4C) below 10 µM.
With `O=C(Cn1nc(-c2ccc(OC(F)F)cc2)ccc1=O)NCC1CCC1` [II-18, N-(cyclobutylmethyl)-2-(3-(4-(difluoromethoxy)phenyl)-6-oxopyridazin-1(6H)-yl)acetamide], under “Table 4B”, the IC50 is 10 to 100 µM.
`O=C(Cn1nc(-c2ccccc2)ccc1=O)Nc1ccccc1Cl` [IIIc-56, N-(2-chlorophenyl)-2-(6-oxo-3-phenylpyridazin-1(6H)-yl)acetamide]: where the note is “Table 4C”, the IC50 fell in the range of 10 to 100 µM.
On the same count and under the same terms, as for `COc1ccc(-c2ccc(=O)n(CC(=O)NCCC(C)C)n2)c(F)c1` [IIIb-57, 2-(3-(2-fluoro-4-methoxyphenyl)-6-oxopyridazin-1(6H)-yl)-N-isopentylacetamide], the figure is above 100 µM.
`CCNC(=O)Cn1nc(-c2ccc(OCC3(C)COC3)nc2)ccc1=O` [Compound I-24, N-ethyl-2-(3-(6-((3-methyloxetan-3-yl)methoxy)pyridin-3-yl)-6-oxopyridazin-1(6H)-yl)acetamide] returned an IC50 (Table 4A) of 10 to 100 µM.
Consider `CCC1CCC(CNC(=O)Cn2nc(-c3ccccc3)ccc2=O)CC1` (centres unmarked) [IIIc-55, N-((4-ethylcyclohexyl)methyl)-2-(6-oxo-3-phenylpyridazin-1(6H)-yl)acetamide], for which the IC50 (Table 4C) fell in the range of 10 to 100 µM.
Turning to `C[C@@H](NC(=O)Cn1nc(-c2ccc3c(c2)OCCCO3)ccc1=O)c1ccc(F)cc1` [IIIb-26, (R)-2-(3-(3,4-dihydro-2H-benzo[b][1,4]dioxepin-7-yl)-6-oxopyridazin-1(6H)-yl)-N-(1-(4-fluorophenyl)ethyl)acetamide], for the setting “Table 4C”, the IC50 was 10 to 100 µM.
Regarding `Cc1ccc(-c2ccc(=O)n(CC(=O)NC3CCCC3)n2)cc1` [IIIc-5, N-cyclopentyl-2-(6-oxo-3-(p-tolyl)pyridazin-1(6H)-yl)acetamide], the IC50 (Table 4C) was in the range of 10 to 100 µM.
Compound `Cn1ccc2c(NC(=O)Cn3nc(-c4ccc(F)cc4)ccc3=O)cccc21` [IIIc-16, 2-(3-(4-fluorophenyl)-6-oxopyridazin-1(6H)-yl)-N-(1-methyl-1H-indol-4-yl)acetamide] gave an IC50 (Table 4C) below 10 µM.
Still for that read-out and setting: as for `COc1ccc(-c2ccc(=O)n(CC(=O)NC3CCCC3)n2)cc1` [IIIb-23, N-cyclopentyl-2-(3-(4-methoxyphenyl)-6-oxopyridazin-1(6H)-yl)acetamide], the figure is 10 to 100 µM.
Still for that read-out and setting: the value for `COc1ccc(-c2ccc(=O)n(CC(=O)NC(C)C)n2)c(F)c1` [IIIb-19, 2-(3-(2-fluoro-4-methoxyphenyl)-6-oxopyridazin-1(6H)-yl)-N-isopropylacetamide] was 10 to 100 µM; that for `COc1ccc(-c2ccc(=O)n(CC(=O)NCc3ccccc3OC)n2)cc1` [IIIb-21] was 10 to 100 µM.
As for `COc1ccc(-c2ccc(=O)n(CC(=O)NC(C)CCc3ccccc3)n2)c(F)c1` (centres unmarked) [IIIb-36, 2-(3-(2-fluoro-4-methoxyphenyl)-6-oxopyridazin-1(6H)-yl)-N-(4-phenylbutan-2-yl)acetamide], for the setting “Table 4C”, the IC50 lay in the range of 10 to 100 µM.
For `Cc1ccc(-c2ccc(=O)n(CC(=O)NC3CCCCC3)n2)cc1` [IIIc-6, N-cyclohexyl-2-(6-oxo-3-(p-tolyl)pyridazin-1(6H)-yl)acetamide], the IC50 (Table 4C) was in the range of 10 to 100 µM.
Same read-out and setting: the value for `COc1ccc(-c2ccc(=O)n(CC(=O)NCCC(C)C)n2)cc1` [IIIb-48, N-isopentyl-2-(3-(4-methoxyphenyl)-6-oxopyridazin-1(6H)-yl)acetamide] was above 100 µM; that for `COc1ccc(-c2ccc(=O)n(CC(=O)NCc3cccc(F)c3)n2)c(F)c1` [IIIb-55, 2-(3-(2-fluoro-4-methoxyphenyl)-6-oxopyridazin-1(6H)-yl)-N-(3-fluorobenzyl)acetamide] was above 100 µM; that for `COc1ccc(-c2ccc(=O)n(CC(=O)NCc3ccccc3Cl)n2)cc1OC` [IIIb-40, N-(2-chlorobenzyl)-2-(3-(3,4-dimethoxyphenyl)-6-oxopyridazin-1(6H)-yl)acetamide] was above 100 µM.
Under “Table 4B”, `CCNC(=O)Cn1nc(-c2ccc(OC(F)(F)F)cc2)ccc1=O` [II-5, N-ethyl-2-(6-oxo-3-(4-(trifluoromethoxy)phenyl)pyridazin-1(6H)-yl)acetamide] came in with an IC50 below 10 µM.
For the setting “Table 4C”, `COc1ccc(-c2ccc(=O)n(CC(=O)NC3CCCC3)n2)cc1OC` [IIIb-45, N-cyclopentyl-2-(3-(3,4-dimethoxyphenyl)-6-oxopyridazin-1(6H)-yl)acetamide] came in with an IC50 above 100 µM.
The compound `CC(C)CNC(=O)Cn1nc(-c2ccc(OC(F)F)cc2)ccc1=O` [II-13, 2-(3-(4-(difluoromethoxy)phenyl)-6-oxopyridazin-1(6H)-yl)-N-isobutylacetamide] returned an IC50 (Table 4B) of 10 to 100 µM.
With `CCOc1ccc(-c2ccc(=O)n(CC(=O)NCc3ccccc3Cl)n2)cc1` [IIIa-1, N-(2-chlorobenzyl)-2-(3-(4-ethoxyphenyl)-6-oxopyridazin-1(6H)-yl)acetamide], the IC50 (Table 4C) was below 10 µM.
`O=C(Cn1nc(-c2ccc(OCC(F)(F)F)cc2)ccc1=O)NCc1ccncc1Cl` [II-25, N-((3-chloropyridin-4-yl)methyl)-2-(6-oxo-3-(4-(2,2,2-trifluoroethoxy)phenyl)pyridazin-1(6H)-yl)acetamide]: under “Table 4B”, the IC50 is above 100 µM.
On to `COc1ccc(-c2ccc(=O)n(CC(=O)NCc3cccc(F)c3)n2)cc1` [IIIb-32, N-(3-fluorobenzyl)-2-(3-(4-methoxyphenyl)-6-oxopyridazin-1(6H)-yl)acetamide], for which the IC50 (Table 4C) lay within 10 to 100 µM.
Where the note is “Table 4A”, `CCNC(=O)Cn1nc(-c2ccc(NC34CC(C)(C3)C4)nc2)ccc1=O` [Compound I-60, N-ethyl-2-(3-(6-((3-methylbicyclo [1.1.1]pentan-1-yl)amino)pyridin-3-yl)-6-oxopyridazin-1(6H)-yl)acetamide] returned an IC50 below 10 µM.
